Counter-ions that a name gives are not always drawn.
Tests used:
[1] = biological target: T1, AtsK (Pseudomonas putida, UniProt Q9WWU5); assay: NADH/LADH coupled assay, […] nm; assay type: biochemical; details: alpha-ketoglutarate, Fe(II), ascorbate; 1 and 10 mM substrate
T1 construct: not described in main text (supplement File S1)

[2] = biological target: Rv3406 (Mycobacterium tuberculosis, UniProt P9WKZ1); assay: NADH/LADH coupled assay, […] nm; assay type: biochemical; details: co-substrate with 2-EHS, Fe(II), ascorbate, pH 7.5, 25 C

T1 sequence (Q9WWU5 whole entry): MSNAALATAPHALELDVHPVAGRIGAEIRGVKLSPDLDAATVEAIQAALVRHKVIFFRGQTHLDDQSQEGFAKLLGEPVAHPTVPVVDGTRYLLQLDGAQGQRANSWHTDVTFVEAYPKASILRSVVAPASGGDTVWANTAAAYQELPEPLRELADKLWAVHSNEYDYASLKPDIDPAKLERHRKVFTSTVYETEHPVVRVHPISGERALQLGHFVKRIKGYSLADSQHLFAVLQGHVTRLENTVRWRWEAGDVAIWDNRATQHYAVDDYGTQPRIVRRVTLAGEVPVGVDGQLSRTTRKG

SMILES | NADH/LADH coupled assay, 340 nm [1] | NADH/LADH coupled assay, 340 nm [2]
CCCCC(CC)COS(=O)(=O)O (centres unmarked) [2-ethylhexyl sulfate] | we also tested AtsK and found 2-EHS was its preferred substrate as well | 
O=C(O)CCC(=O)C(=O)O [α-ketoglutarate] |  | Rv3406’s activity on 2-EHS is dependent on the cosubstrate αKG

Reference: publication PMC3675115, “Mycobacterium tuberculosis Rv3406 Is a Type II Alkyl Sulfatase Capable of Sulfate Scavenging” (PLoS ONE, 2013)
